Measurements as given in ChEMBL document CHEMBL1201862, “PubChem BioAssay data set” (2004).
Active and inactive are the calls of the source.

Assays:
[1] = biological target: T1, Trace amine-associated receptor 1 (Homo sapiens, UniProt Q96RJ0); test: Counterscreen for agonists of the human trace amine associated receptor 1 (hTAAR1): Fluorescence-based cell-based high throughput dose response assay to identify hTAAR1 agonist that also desensitize TAAR1 receptor response.; type: functional
T1 sequence (Q96RJ0 whole entry): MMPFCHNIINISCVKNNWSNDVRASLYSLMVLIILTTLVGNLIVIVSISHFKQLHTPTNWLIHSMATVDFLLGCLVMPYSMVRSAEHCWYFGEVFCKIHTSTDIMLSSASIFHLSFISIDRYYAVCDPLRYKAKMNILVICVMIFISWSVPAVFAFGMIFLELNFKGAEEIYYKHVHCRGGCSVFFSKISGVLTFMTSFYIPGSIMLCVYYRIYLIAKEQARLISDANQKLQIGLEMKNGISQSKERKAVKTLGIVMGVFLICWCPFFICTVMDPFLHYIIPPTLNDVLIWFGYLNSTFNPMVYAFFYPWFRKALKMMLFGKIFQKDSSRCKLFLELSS

[2] = cells; type: functional, cell-based
[3] = biological target: T1, Trace amine-associated receptor 1; test: Fluorescence-based cell-based high throughput dose response assay to identify agonists of the human trace amine associated receptor 1 (TAAR1).; type: functional
[4] = cells; type: functional, cell-based; remark: listed apart in the source
[5] = system: Vero; test: Vero cell toxicity, dose response, cytotoxicity control, plate reader, cherry-pick samples (AID 687020); type: functional, cell-based; settings: Chlorocebus sabaeus
[6] = cells; type: functional, cell-based; remark: listed apart in the source
[7] = biological target: T2, Nuclear receptor subfamily 0 group B member 1 (Homo sapiens, UniProt P51843); type: functional, cell-based;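 further: HEK293T cells transfected with SF-1 and DAX-1 plus StAR promoter luciferase reporter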
T2 sequence (P51843 whole entry): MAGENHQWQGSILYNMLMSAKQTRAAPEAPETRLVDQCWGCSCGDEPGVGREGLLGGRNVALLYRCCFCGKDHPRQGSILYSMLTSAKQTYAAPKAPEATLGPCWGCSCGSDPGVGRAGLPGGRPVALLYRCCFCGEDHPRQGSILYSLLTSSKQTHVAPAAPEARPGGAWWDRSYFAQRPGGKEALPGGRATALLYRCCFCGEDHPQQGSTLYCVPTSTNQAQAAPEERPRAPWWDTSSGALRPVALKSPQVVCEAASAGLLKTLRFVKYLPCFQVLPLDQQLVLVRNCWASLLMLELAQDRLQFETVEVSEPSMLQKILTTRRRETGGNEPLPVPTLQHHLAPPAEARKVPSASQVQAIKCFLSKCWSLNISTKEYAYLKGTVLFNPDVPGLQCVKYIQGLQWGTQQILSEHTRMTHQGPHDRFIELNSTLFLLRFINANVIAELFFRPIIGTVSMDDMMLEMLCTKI

[8] = biological target: T3, Sentrin-specific protease 1 (Homo sapiens, UniProt Q9P0U3); test: potency of human SENP1 inhibitors, dose response, biochemical, kinetic FRET (AID 651697); type: functional; settings: read-out: IC50_Mean
T3 sequence (Q9P0U3 whole entry): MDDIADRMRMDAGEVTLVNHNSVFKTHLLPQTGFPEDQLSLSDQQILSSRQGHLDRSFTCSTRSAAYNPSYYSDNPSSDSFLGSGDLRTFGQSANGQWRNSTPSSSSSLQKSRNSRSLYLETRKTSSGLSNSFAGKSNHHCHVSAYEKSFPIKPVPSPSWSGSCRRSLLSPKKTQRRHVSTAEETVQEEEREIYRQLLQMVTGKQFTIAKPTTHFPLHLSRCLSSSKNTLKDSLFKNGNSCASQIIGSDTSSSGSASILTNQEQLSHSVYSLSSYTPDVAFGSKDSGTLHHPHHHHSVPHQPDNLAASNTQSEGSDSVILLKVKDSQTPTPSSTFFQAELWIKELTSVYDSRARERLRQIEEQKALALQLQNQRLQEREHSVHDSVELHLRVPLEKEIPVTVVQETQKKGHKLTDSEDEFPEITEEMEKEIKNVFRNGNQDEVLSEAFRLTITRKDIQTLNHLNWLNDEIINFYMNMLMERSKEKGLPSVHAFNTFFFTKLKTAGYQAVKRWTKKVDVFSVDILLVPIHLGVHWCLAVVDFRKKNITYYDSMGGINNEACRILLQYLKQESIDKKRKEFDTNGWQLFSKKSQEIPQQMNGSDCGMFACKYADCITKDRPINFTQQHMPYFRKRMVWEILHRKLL

[9] = system: Vero; test: cells; type: functional, cell-based; settings: Chlorocebus sabaeus
[10] = biological target: T4, Aminopeptidase N (Plasmodium falciparum FcB1/Columbia, UniProt O96935); test: P. falciparum M1AAP inhibitors, biochemical, fluorogenic H-Leu-NHMec substrate, 1536-well (AID 1445); set-up: species or system Plasmodium falciparum 3D7, 3D7
T4 sequence (O96935 whole entry): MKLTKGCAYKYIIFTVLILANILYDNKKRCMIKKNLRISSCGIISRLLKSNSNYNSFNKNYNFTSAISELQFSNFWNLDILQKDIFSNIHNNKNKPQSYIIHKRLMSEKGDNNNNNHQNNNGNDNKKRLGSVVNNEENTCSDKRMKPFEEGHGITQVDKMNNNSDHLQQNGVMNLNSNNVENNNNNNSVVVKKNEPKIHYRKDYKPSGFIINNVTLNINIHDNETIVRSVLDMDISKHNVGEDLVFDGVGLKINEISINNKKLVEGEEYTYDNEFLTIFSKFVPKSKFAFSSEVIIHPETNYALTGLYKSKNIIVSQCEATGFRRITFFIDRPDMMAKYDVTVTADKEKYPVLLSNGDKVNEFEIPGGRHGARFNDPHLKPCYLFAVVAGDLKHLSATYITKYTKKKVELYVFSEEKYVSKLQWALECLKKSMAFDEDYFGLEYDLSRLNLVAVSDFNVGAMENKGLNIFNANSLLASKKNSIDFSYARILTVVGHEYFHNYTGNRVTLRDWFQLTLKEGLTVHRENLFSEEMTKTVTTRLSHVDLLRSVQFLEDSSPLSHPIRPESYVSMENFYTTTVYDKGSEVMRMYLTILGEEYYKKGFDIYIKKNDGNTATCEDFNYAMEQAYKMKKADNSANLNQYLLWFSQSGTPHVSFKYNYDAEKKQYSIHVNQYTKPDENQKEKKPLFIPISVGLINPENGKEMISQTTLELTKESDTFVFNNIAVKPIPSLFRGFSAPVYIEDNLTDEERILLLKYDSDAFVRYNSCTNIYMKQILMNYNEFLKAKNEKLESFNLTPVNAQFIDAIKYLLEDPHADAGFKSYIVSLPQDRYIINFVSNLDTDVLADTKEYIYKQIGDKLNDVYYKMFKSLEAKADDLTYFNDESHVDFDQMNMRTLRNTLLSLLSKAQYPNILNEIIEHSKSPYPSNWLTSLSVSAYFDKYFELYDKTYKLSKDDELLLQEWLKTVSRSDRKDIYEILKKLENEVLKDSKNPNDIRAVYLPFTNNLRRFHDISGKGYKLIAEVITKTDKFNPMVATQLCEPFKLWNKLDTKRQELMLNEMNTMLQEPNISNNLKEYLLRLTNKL

[11] = biological target: T3, Sentrin-specific protease 1; test: Dose response confirmation of small molecule inhibitors of the catalytic domain of the SUMO protease, SENP1 in a FRET assay.; type: functional; settings: read-out: IC50_Mean
[12] = Luminescence Cell-Based Dose Retest to Confirm Inhibitors of Cancer Stem Cells. [Related pubchem assays (depositor defined):AID2717, AID2721]; type: functional; settings: Homo sapiens
[13] = biological target: T5, Small ubiquitin-related modifier 1 (Homo sapiens, UniProt P63165); test: inhibitors of SUMO1 partner interactions, dose response, biochemical, FRET (AID 624383); type: functional; settings: read-out: IC50_Mean
T5 sequence (P63165 whole entry): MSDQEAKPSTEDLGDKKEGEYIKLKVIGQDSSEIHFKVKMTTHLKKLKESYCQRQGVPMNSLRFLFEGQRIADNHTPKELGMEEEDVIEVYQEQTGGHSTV

[14] = biological target: T5, Small ubiquitin-related modifier 1; test: inhibitors of SUMO1 peptide binding, dose response, biochemical, fluorescence polarization, uHTS hits (AID 624382); type: functional; settings: read-out: IC50_Mean
[15] = Counterscreen for activators of the function of SWI/SNF related, matrix associated, actin dependent regulator of chromatin, subfamily a, member 2 (SMARCA2, BRM): Luminescence-based cell-based high throughput dose response assay to identify non-selective compounds using the VP16 reporter assay.; type: functional
[16] = biological target: SWI/SNF-related matrix-associated actin-dependent regulator of chromatin subfamily A member 2 (Homo sapiens, UniProt P51531); test: Luminescence-based cell-based high throughput dose response assay to identify activators of the function of SWI/SNF related, matrix associated, actin dependent regulator of chromatin, subfamily a, member 2 (SMARCA2, BRM).; type: functional
Sequence of SWI/SNF-related matrix-associated actin-dependent regulator of chromatin subfamily A member 2 (P51531 whole entry): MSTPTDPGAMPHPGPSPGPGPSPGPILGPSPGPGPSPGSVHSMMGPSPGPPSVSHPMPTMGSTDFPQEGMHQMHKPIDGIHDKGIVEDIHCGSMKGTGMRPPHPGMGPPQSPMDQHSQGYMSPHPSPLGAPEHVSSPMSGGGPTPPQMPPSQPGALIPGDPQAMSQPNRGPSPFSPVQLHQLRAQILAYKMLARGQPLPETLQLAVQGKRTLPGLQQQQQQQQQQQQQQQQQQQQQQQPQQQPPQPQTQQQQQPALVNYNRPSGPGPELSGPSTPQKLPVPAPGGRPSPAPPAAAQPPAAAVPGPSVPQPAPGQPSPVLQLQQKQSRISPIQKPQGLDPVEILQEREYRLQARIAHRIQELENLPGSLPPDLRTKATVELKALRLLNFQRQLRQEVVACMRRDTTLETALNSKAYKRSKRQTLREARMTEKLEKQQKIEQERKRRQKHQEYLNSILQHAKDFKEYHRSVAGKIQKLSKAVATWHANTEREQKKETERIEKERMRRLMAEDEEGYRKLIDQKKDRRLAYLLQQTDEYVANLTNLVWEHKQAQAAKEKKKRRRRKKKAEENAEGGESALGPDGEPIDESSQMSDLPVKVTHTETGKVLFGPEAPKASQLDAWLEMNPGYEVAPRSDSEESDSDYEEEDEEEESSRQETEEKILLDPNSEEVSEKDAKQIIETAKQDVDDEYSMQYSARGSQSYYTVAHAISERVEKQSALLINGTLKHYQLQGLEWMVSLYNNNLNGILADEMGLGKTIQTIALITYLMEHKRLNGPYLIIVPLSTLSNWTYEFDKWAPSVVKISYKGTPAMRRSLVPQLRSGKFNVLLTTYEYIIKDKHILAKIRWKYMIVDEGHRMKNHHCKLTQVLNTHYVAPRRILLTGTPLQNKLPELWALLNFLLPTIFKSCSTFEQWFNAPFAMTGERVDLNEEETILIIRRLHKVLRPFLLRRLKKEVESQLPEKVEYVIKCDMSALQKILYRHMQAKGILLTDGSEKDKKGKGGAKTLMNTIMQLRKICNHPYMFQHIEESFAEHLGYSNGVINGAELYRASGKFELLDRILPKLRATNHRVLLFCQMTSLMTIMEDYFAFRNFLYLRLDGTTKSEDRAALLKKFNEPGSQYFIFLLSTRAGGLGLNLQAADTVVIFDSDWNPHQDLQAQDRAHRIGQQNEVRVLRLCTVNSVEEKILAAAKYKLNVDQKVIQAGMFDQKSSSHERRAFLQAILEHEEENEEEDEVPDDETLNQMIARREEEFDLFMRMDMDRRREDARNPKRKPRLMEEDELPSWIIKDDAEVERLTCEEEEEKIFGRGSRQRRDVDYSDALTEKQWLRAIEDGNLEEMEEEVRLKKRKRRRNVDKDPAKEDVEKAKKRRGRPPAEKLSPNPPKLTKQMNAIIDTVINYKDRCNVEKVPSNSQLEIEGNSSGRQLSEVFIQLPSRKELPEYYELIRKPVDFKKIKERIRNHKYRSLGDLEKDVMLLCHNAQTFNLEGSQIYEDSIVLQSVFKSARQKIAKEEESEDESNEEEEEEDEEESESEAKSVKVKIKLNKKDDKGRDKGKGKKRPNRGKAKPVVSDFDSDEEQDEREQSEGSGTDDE

[17] = biological target: T6, Rac GTPase-activating protein 1 (Homo sapiens, UniProt Q9H0H5); test: MgcRacGAP GTPase-activating activity inhibitors, confirmation, biochemical, ADP Hunter fluorescence, primary and confirmatory (AID 624330); type: functional
T6 sequence (Q9H0H5 whole entry): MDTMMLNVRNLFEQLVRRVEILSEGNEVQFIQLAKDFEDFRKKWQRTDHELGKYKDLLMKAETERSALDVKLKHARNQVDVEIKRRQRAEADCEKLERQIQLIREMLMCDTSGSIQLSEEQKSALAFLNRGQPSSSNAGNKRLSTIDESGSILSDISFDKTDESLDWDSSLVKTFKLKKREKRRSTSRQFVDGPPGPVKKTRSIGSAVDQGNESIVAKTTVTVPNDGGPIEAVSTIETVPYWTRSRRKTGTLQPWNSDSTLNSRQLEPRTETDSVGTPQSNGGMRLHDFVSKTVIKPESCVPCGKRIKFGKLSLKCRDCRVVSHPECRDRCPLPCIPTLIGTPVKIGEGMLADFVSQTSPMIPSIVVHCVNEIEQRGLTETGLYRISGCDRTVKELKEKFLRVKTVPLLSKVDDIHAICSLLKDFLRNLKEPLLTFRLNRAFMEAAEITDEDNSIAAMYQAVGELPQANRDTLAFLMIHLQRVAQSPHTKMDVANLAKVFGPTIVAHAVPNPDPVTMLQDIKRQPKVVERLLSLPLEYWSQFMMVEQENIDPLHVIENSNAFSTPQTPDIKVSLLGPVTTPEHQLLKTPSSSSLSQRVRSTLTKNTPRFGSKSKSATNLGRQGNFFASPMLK

[18] = HeLa cell cytotoxicity, dose response, cytotoxicity control for MgcRacGAP inhibitor project (AID 624300); type: functional
[19] = biological target: T7, DNA repair protein RAD52 homolog (Homo sapiens, UniProt P43351); type: functional, biochemical
T7 sequence (P43351 whole entry): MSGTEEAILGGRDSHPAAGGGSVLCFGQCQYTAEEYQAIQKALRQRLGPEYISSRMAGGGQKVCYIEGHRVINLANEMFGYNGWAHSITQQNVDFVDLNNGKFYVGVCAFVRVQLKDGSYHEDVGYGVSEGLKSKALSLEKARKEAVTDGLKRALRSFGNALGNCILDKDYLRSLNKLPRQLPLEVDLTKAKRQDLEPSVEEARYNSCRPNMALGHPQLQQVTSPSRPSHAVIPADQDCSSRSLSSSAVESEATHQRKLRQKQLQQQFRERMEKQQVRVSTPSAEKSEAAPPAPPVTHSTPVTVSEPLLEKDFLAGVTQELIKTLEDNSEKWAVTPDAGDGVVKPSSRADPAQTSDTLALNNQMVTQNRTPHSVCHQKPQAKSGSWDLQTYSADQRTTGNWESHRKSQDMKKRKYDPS

[20] = system: Streptococcus; test: Group A Streptococcus viability loss, dose response, counter-screen for streptokinase expression inhibitor project, luminescence, BacTiterGlo (AID 1915); type: functional, organism-based;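 further: potency for reduction of bacterial viability or growth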
[21] = biological target: T8, Streptokinase A (Streptococcus pyogenes serotype M1, UniProt P10520); test: S. pyogenes streptokinase expression inhibitors, potency, dose response, plasminogen activation absorbance, OD405 (AID 1914); type: functional, Streptococcus pyogenes M1 GAS;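 further: secreted streptokinase activity via plasminogen activation per viability signal from cell pellet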
T8 sequence (P10520 whole entry): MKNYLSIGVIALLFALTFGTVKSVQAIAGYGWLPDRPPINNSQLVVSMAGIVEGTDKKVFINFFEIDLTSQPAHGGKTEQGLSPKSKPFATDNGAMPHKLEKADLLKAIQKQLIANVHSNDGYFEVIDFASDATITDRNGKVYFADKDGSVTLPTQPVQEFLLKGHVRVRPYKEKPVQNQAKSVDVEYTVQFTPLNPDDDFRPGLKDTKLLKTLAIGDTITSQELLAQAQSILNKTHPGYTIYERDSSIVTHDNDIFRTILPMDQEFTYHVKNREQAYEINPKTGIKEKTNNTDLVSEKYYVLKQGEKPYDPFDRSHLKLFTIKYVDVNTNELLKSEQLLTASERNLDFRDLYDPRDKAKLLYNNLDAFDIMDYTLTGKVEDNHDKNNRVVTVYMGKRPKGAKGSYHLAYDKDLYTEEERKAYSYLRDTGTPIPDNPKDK

SMILES: COc1cccc(N2CN(CCc3ccccc3)CN=C2S)c1
- IC50 [1]: 3.52 µM (active)
- EC50 [2]: > 29.9 µM (inactive)
- EC50 [3]: 0.758 µM (active)
- IC50 [4]: > 29.9 µM (inactive)

SMILES: O=C(C[C@H]1C(=O)N(Cc2ccccc2)C[C@@H]1Cc1ccccc1)Nc1ccc(Br)cc1
- AC50 [5]: 31.4 µM (active)

SMILES: CCOc1ccccc1-c1nnc(CS(=O)(=O)c2ccccc2)o1
- AC50 [5]: 23.9 µM (active)

SMILES: Cc1cc(C)c2nc(NC(=O)c3ccco3)sc2c1
- IC50 [6]: > 67.5 µM (inactive)
- IC50 [7]: > 0.278 µM (active)

SMILES: O=C(N/N=C(\CC(=O)c1cccs1)C(F)(F)F)c1ccncc1
- IC50 [8]: 38 µM (inactive)
- IC50 [9]: 24.8 µM (active)
- IC50 [10]: 48.8 µM (active)
- IC50 [11]: 10.1 µM (active)

SMILES: O=C(O)c1cccc(S(=O)(=O)NNc2ccccc2C(F)(F)F)c1
- AC50 [12]: 10.8 µM (active)
- IC50 [13]: 9.06 µM (active)
- IC50 [14]: > 66.6 µM (inactive)

SMILES: Cn1ccc(C(=O)N/N=C/c2c[nH]c3ccccc23)n1
- EC50 [15]: > 91.2 µM (inactive)
- EC50 [16]: > 91.2 µM (inactive)

SMILES: Fc1ccc(CNc2ccc(N3CCN(Cc4ccccc4)CC3)cc2)cc1
- IC50 [17]: 15.4 µM (active)
- CC50 [18]: 98.7 µM (active)

SMILES: COc1ccc(-c2nc3c(C(=O)NCCN(C)C)cccc3c3ccccc23)cc1
- AC50 [19]: 2.89 µM (active)
- EC50 [15]: > 91.2 µM (inactive)
- EC50 [16]: > 91.2 µM (inactive)

SMILES: CN(C(=O)C1CCC(=O)N(Cc2cccc(F)c2)C1)C1CCCCC1 (stereo not drawn)
- IC50 [6]: > 67.6 µM (inactive)
- IC50 [7]: > 67.6 µM (inactive)

SMILES: O=C(Nc1cccc(-c2nc3ccccc3[nH]2)c1)c1ccc(C(=O)Nc2cccc(-c3nc4ccccc4[nH]3)c2)cc1
- EC50 [20]: 61.9 µM (active)
- IC50 [13]: 6.29 µM (active)
- IC50 [14]: > 66.6 µM (inactive)
- EC50 [21]: > 150 µM (not active)
